Reference: ChEMBL document CHEMBL4017502, “Discovery and Characterization of (R)-6-Neopentyl-2-(pyridin-2-ylmethoxy)-6,7-dihydropyrimido[2,1-c][1,4]oxazin-4(9H)-one (PF-06462894), an Alkyne-Lacking Metabotropic Glutamate Receptor 5 Negative Allosteric Modulator Profiled in both Rat and Nonhuman Primates” (J Med Chem, 2017)
Values belong to the compound of their own block, whether it stands above or below them.

Assays:
[1] = Apparent permeability across apical to basolateral side in RRCK cells at 1 uM after 2 hrs by LC/MS-MS analysis; assay type: ADME, cell-based, Canis lupus familiaris, MDCKII-LE; conditions: dog, MDCK
[2] = Volume of distribution at steady state in Sprague-Dawley rat at 1 mg/kg, iv via single bolus administration; assay type: ADME, organism-based; conditions: in vivo, read-out: Vdss
[3] = Volume of distribution at steady state in cynomolgus monkey at 1 mg/kg, iv via single bolus administration; assay type: ADME, organism-based, Macaca fascicularis; conditions: in vivo, read-out: Vdss
[4] = Oral bioavailability in Sprague-Dawley rat at 25 mg/kg; assay type: ADME, organism-based; conditions: in vivo
[5] = Oral bioavailability cynomolgus monkey […] at 30 mg/kg; assay type: ADME, organism-based, Macaca fascicularis; conditions: in vivo
[6] = Ratio of free AUC (0 to 4 hrs) in Sprague-Dawley rat brain to plasma at 0.32 to 1 mg/kg, sc; assay type: ADME, organism-based
[7] = system: Plasma; test: Plasma concentration in human; assay type: ADME, cell-free
[8] = Ratio of unbound drug level in cynomolgus monkey brain to plasma at 600 mg/kg, po measured 7.65 hrs post dose on day 1; assay type: ADME, organism-based, Macaca fascicularis; conditions: read-out: K(p,uu,brain)
[9] = Volume of distribution at steady state in 6 MPTP-treated dyskinetic PD-LID rhesus monkey at 2 mg/kg administered BID; assay type: ADME, organism-based, Macaca mulatta; conditions: in vivo, read-out: Vdss
[10] = Bioavailability in 6 MPTP-treated dyskinetic PD-LID rhesus monkey model at 2 mg/kg administered BID; assay type: ADME, organism-based, Macaca mulatta; conditions: in vivo
[11] = AUC (0 to 24 hrs) at steady state in Crl:CD(SD) rat at 50 mg/kg/day, administered via oral gavage for 14 consecutive days measured on day 13; assay type: ADME, organism-based; design: dose 50 mg/kg/day, time < 24 hr, route oral; conditions: in vivo
[12] = AUC (0 to 24 hrs) at steady state in Crl:CD(SD) rat at 150 mg/kg/day, administered via oral gavage for 14 consecutive days measured on day 13; assay type: ADME, organism-based; design: time < 24 hr, dose 150 mg/kg/day, route oral; conditions: in vivo
[13] = AUC (0 to 24 hrs) at steady state in Crl:CD(SD) rat at 500 mg/kg/day, administered via oral gavage for 14 consecutive days measured on day 13; assay type: ADME, organism-based; design: dose 500 mg/kg/day, time < 24 hr, route oral; conditions: in vivo
[14] = AUC (0 to 24 hrs) at steady state in cynomolgus monkey at 50 mg/kg/day, administered via oral gavage for 14 consecutive days measured on day 13; assay type: ADME, organism-based, Macaca fascicularis; design: time < 24 hr, dose 50 mg/kg/day, route oral; conditions: in vivo
[15] = AUC (0 to 24 hrs) at steady state in cynomolgus monkey at 150 mg/kg/day, administered via oral gavage for 14 consecutive days measured on day 13; assay type: ADME, organism-based, Macaca fascicularis; design: time < 24 hr, dose 150 mg/kg/day, route oral; conditions: in vivo
[16] = AUC (0 to 24 hrs) at steady state in cynomolgus monkey at 600 mg/kg/day, administered via oral gavage for 14 consecutive days measured on day 13; assay type: ADME, organism-based, Macaca fascicularis; design: dose 600 mg/kg/day, time < 24 hr, route oral; conditions: in vivo
[17] = system: Plasma; test: Drug metabolism in Crl:CD(SD) rat plasma assessed as metabolite formation at 150 mg/kg, administered via oral gavage measured on day 1 by UV-LC-MS/MS analysis; assay type: ADME, organism-based; conditions: in vivo
[18] = system: Plasma; test: Drug metabolism in cynomolgus monkey plasma assessed as monohydroxylated metabolite formation at 150 mg/kg, administered via oral gavage measured on day 12 by UV-LC-MS/MS analysis; assay type: ADME, organism-based, Macaca fascicularis; conditions: in vivo
[19] = system: Plasma; test: Drug metabolism in cynomolgus monkey plasma assessed as N-oxygenated metabolite formation at 150 mg/kg, administered via oral gavage measured on day 12 by UV-LC-MS/MS analysis; assay type: ADME, organism-based, Macaca fascicularis; conditions: in vivo
[20] = system: Plasma; test: Drug metabolism in cynomolgus monkey plasma assessed as O-dealkylated metabolite formation at 150 mg/kg, administered via oral gavage measured on day 12 by UV-LC-MS/MS analysis; assay type: ADME, organism-based, Macaca fascicularis; conditions: in vivo
[21] = system: Plasma; test: Drug metabolism in cynomolgus monkey plasma assessed as glucuronidated metabolite formation at 150 mg/kg, administered via oral gavage measured on day 12 by UV-LC-MS/MS analysis; assay type: ADME, organism-based, Macaca fascicularis; conditions: in vivo
[22] = system: Plasma; test: Drug metabolism in cynomolgus monkey plasma assessed as metabolite formation at 150 mg/kg, administered via oral gavage measured on day 1 by UV-LC-MS/MS analysis; assay type: ADME, organism-based, Macaca fascicularis; conditions: in vivo

Structure (SMILES): O=c1cc(OCc2cccc(Cl)c2)nc2n1CCOC2
Papp A→B at 2 h, 1 µM [1]: 31 ×10⁻⁶ cm/s

Structure (SMILES): CC(C)C[C@@H]1COCc2nc(OCc3cccc(C#N)c3)cc(=O)n21
Papp A→B at 2 h, 1 µM [1]: 28 ×10⁻⁶ cm/s | Vd [2]: 2.14 L/kg | Vd [3]: 2.23 L/kg | bioavailability [4]: 62% | bioavailability [5]: 43% | Kp uu [6]: 2.19

Structure (SMILES): N#Cc1cccc(COc2cc(=O)n3c(n2)COC[C@H]3Cc2ccccc2)c1
Papp A→B at 2 h, 1 µM [1]: 26 ×10⁻⁶ cm/s

Structure (SMILES): O=c1cc(OCc2cccc(Cl)c2)nc2n1[C@H](Cc1ccccc1)COC2
Papp A→B at 2 h, 1 µM [1]: 4 ×10⁻⁶ cm/s

Structure (SMILES): O=c1cc(OCc2cccc(Cl)c2)nc2n1CCCC2
Papp A→B at 2 h, 1 µM [1]: 26 ×10⁻⁶ cm/s

Structure (SMILES): CC(C)C[C@@H]1COCc2nc(OCc3ccccn3)cc(=O)n21
Papp A→B at 2 h, 1 µM [1]: 39 ×10⁻⁶ cm/s

Structure (SMILES): Cc1csc(COc2cc(=O)n3c(n2)COC[C@H]3Cc2ccccc2)n1
Papp A→B at 2 h, 1 µM [1]: 26 ×10⁻⁶ cm/s

Structure (SMILES): O=c1cc(OCCC2CC2)nc2n1[C@H](Cc1ccccc1)COC2
Papp A→B at 2 h, 1 µM [1]: 22 ×10⁻⁶ cm/s

Structure (SMILES): CC(C)(C)C[C@@H]1COCc2nc(OCc3cccc(C#N)c3)cc(=O)n21
Papp A→B at 2 h, 1 µM [1]: 25 ×10⁻⁶ cm/s

Structure (SMILES): CC(C)(C)C[C@@H]1COCc2nc(OCc3ccccn3)cc(=O)n21
Papp A→B at 2 h, 1 µM [1]: 29 ×10⁻⁶ cm/s | Vd [2]: 1.29 L/kg | Vd [3]: 1.24 L/kg | bioavailability [4]: 20% | bioavailability [5]: 11% | Cp [7]: 31 ng/mL | Kp uu [6]: 1.22 | Kp uu at 7.65 h [8]: 0.89 | Vd [9]: 1 L/kg | bioavailability [10]: 91% | AUC at 24 h [11]: 23200 ng·h/mL | AUC at 24 h [12]: 117000 ng·h/mL | AUC at 24 h [13]: 313000 ng·h/mL | AUC at 24 h [14]: 3680 ng·h/mL | AUC at 24 h [15]: 45400 ng·h/mL | AUC at 24 h [16]: 41500 ng·h/mL | Drug metabolism [17]: Metabolite_Detected | Drug metabolism [18]: Metabolite_Detected | Drug metabolism [19]: Metabolite_Detected | Drug metabolism [20]: Metabolite_Detected | Drug metabolism [21]: Metabolite_Detected | Drug metabolism [22]: Metabolite_Detected

The next lines start with the values.

Papp A→B at 2 h, 1 µM [1]: 26 ×10⁻⁶ cm/s
Structure (SMILES): O=c1cc(SCc2ccccn2)nc2ccccn12

Papp A→B at 2 h, 1 µM [1]: 22 ×10⁻⁶ cm/s
Structure (SMILES): Cc1cccc(COc2cc(=O)n3c(n2)COC[C@H]3Cc2ccccc2)n1

Papp A→B at 2 h, 1 µM [1]: 7 ×10⁻⁶ cm/s
Structure (SMILES): O=c1cc(OCc2cccc(Cl)c2)nc2ccc(Oc3cccnc3)cn12

Papp A→B at 2 h, 1 µM [1]: 16 ×10⁻⁶ cm/s
Structure (SMILES): O=c1cc(OCc2cccc(Cl)c2)nc2ccccn12

Papp A→B at 2 h, 1 µM [1]: 28 ×10⁻⁶ cm/s
Structure (SMILES): O=c1cc(OCc2ccccn2)nc2n1[C@H](Cc1ccccc1)COC2

Papp A→B at 2 h, 1 µM [1]: 24 ×10⁻⁶ cm/s
Structure (SMILES): Cc1cccc(COc2cc(=O)n3cc(Oc4cccnc4)ccc3n2)n1

Papp A→B at 2 h, 1 µM [1]: 4 ×10⁻⁶ cm/s
Structure (SMILES): O=c1cc(OCc2cccc(Cl)c2)nc2n1[C@@H](Cc1ccccc1)COC2
